Experimental data from patent US9415049B2, “Heteroaryl compounds and uses thereof” (Celgene Avilomics Research, Inc., priority 2013, dated 2016).

Columns and labels:
BTK = target: T1, BTK (Homo sapiens, UniProt Q06187); assay: Btk target site occupancy, covalent probe ELISA in Ramos cells; type: cell-based; conditions: 1 hour at 37° C., 0.09-200 nM, read-out: Ramos cell EC50 (nM), BTK occupancy
T1 construct: endogenous in cells; host or cells: Ramos cells
Description: A covalent probe shown below was used in an ELISA assay to determine occupancy of the target BTK by certain compounds according to the invention.
Ramos cells were incubated in serum-free RPMI medium for 1 hour (˜2×10^6 cells/mL in 2 mL). Test compounds were diluted from a 10 mM DMSO stock solution, to achieve a final concentration of 0.09, 0.27, 0.82, 2.47, 7.42, 22.2, 66, and 200 nM. Cells were then incubated for 1 hour at 37° C. Following incubation, cells were spun at 1100 RPM for 5 minutes then washed in 200 μL of chilled PBS. Following the wash, cells were spun at 1100 RPM for 5 minutes. The supernatant was aspirated and then cells were resuspended in lysis buffer containing protease and phosphatase inhibitors. This was followed by centrifugation for 15 minutes at 14000 RPM at 4° C. Supernatant was transferred to a fresh tube. Lysates were stored at −80° C. until assayed.
Samples were thawed and mixed well by vortexing for 5 seconds. 60 μL of each sample was added into the 96-well mixing plate followed by addition of 60 μL of covalent probe solution (2 μM probe in PBS+0.05% Tween-20+1% BSA; 1:2 sample dilution) to each well containing sample. An adhesive cover was then placed on the plate followed by mixing of the plate on a shaker for 1 hour at room temperature. The streptavidin plate was pre-washed 3 times with PBS+0.05% Tween-20. 50 μL of the standards, QCs, and samples were then transferred from the mixing plate to the streptavidin plate. The plate was covered with an adhesive cover and mixed while shaking for 1 hour at room temperature. A 1:1000 dilution of the primary anti-Btk antibody (catalog #611116, Becton Dickinson; Franklin Lakes, N.J.) in PBS+0.05% Tween-20+0.5% BSA was prepared. The streptavidin plate was washed 3 times with PBS+0.05% Tween-20 and 50 μL/well of diluted anti-Btk antibody was then pipetted into the streptavidin plate. The plate was covered and incubated for 1 hour at room temperature. A 1:5000 dilution of secondary antibody (goat anti-mouse-HRP, catalog #62-6520, Zymed-Invitrogen; Carlsbad, Calif.) in PBS+0.05% Tween-20+0.5% BSA was prepared. The streptavidin plate was again washed 3 times with PBS+0.05% Tween-20 and 50 μL/well of diluted secondary antibody was pipetted into the streptavidin plate. The plate was covered and incubated for 1 hour at room temperature. The streptavidin plate was again washed 3 times with PBS+0.05% Tween-20 followed by the addition of 100 μL of TMB solution to each well. The plate was then read on a Synergy^2 plate reader at OD 650 nm until the OD maximum reached 1.0. This was followed by the addition of 100 μL of the Stop Solution. The plate was then read at OD 450 nm. A human recombinant Btk protein standard curve (11.7-3000 pg/μL) was plotted using a 4 parameter curve fit in GenS software (Version 1.05.11; Biotek; Winooski, Vt.;). The sample ODs were read against the standard curve to calculate free protein amounts.
Data were generated as ODs on an ELISA plate reader (Synergy^2, BioTek; Winooski, Vt.). Uninhibited Btk captured by the biotinylated covalent probe was quantitated and normalized to untreated control samples. Results were expressed as % Btk occupancy. EC50 values were generated using a 4 parameter curve fit analysis in GraphPad Prism version 5.0.

[1] = target: T2, human recombinant full-length Btk enzyme (Homo sapiens, UniProt Q06187); assay: Omnia Continuous Read Kinase Assay, Btk inhibition; type: biochemical; design: human recombinant full-length Btk enzyme; conditions: 30 minutes pre-incubation at 27° C.; 0.5 nM to 10 μM
Description: The following Example describes testing certain compounds according to the invention for inhibition of BTK activity. The Omnia® Continuous Read Kinase Assay uses an unnatural amino acid chelation enhanced fluorophore (Sox; 8-hydroxy-5-(N,N-dimethylsulfonamido)-2 methylquinoline) incorporated into a kinase-specific peptide substrate to characterize Btk enzyme kinetics and inhibition. Following Btk-mediated phosphorylation, a sensitive, highly quantifiable increase in real-time fluorescence is noted based upon the ability of chelated Mg2+ to form a bridge between Sox and the phosphate group on a tyrosine residue of the peptide substrate. The Omnia® continuous read assay was performed essentially as described by the vendor (Invitrogen; Carlsbad, Calif.). First, a 10× stock of human recombinant full-length Btk enzyme was prepared in Kinase Reaction Buffer. 5 μL of the 10× enzyme was pre-incubated with 0.5 μL of serially diluted compound prepared in 50% DMSO, in a 384-well microtiter plate for 30 minutes at 27° C. 1.13×ATP and the Tyr5-Sox conjugated peptide substrate were prepared in 1× Kinase Reaction Buffer. Kinase reactions were initiated by the addition of 45 μL of the 1.13×ATP-Sox peptide substrate master mix and monitored every 30 to 90 seconds for 60 minutes at λex360/λem485 in a Synergy plate reader. The IC50 values for each compound assayed were determined from test concentrations of 0.5 nM to 10 μM in half-log intervals performed in duplicate.
At the conclusion of each assay, progress curves from each well were examined for linear reaction kinetics and fit statistics (R2, 95% confidence interval, absolute sum of squares) using GraphPad software (GraphPad Prism version 5.01; San Diego, Calif.). Initial velocity (0 minutes to ˜30+ minutes) from each reaction was determined from the slope of a plot of relative fluorescence units versus time (minutes). Using control normalized % inhibition data, plots were constructed against inhibitor concentration to estimate IC50 from log [inhibitor] versus response using a variable slope model in GraphPad. The compound numbers correspond to the compound numbers in Table 1.

[2] = target: T2, human recombinant full-length Btk enzyme; assay: Covalent bonding assay, intact protein MALDI mass spectrometry; type: binding; design: The full-length recombinant human Btk protein; purchased Invitrogen Lot #619547Q (catalogue number not given); conditions: percentage of total protein covalently modified after one hour incubation, 10-fold excess of compound, room temperature
Description: The following example describes testing certain compounds to determine whether they covalently bind to BTK. The full-length recombinant human Btk protein (Lot #619547Q; 0.35 mg/mL) was obtained from Invitrogen (Carlsbad, Calif.). Btk protein was diluted 2:3 in phosphate-buffered saline and stock concentration (10 mM) of compound was diluted 1:115 in 50% DMSO.
For all compounds, 1 μL of diluted compound was added to 5 μL of diluted protein. These mixtures were then incubated for 60 minutes at a 10-fold excess of compound to protein under room temperature (˜24° C.) conditions.
At the end of the incubation, 5 μL aliquots of the samples were diluted with 15 μL of 0.2% TFA prior to micro C4 ZipTipping® directly onto the MALDI target plate using sinapinic acid as the desorption matrix (10 mg/mL in 0.2% TFA:Acetonitrile 50:50). Samples were immediately analyzed on an ABSciex 4800 MALDI TOF-TOF mass spectrometer.
For intact protein mass measurement, the mass spectrometer was set in linear mode using a pulsed extraction setting of 81,500. Bovine serum albumin (BSA; Sigma, St Louis, Mo.) was used as the standard to calibrate the instrument. These values correspond to the percentage of total protein covalently modified by the tested compound after one hour incubation.

[3] = tested on: TNF-α, IL-1β, and other inflammatory cytokines; conditions: LPS-stimulated hPBMC and human whole blood; cited from earlier work

T2 sequence (Q06187 whole entry): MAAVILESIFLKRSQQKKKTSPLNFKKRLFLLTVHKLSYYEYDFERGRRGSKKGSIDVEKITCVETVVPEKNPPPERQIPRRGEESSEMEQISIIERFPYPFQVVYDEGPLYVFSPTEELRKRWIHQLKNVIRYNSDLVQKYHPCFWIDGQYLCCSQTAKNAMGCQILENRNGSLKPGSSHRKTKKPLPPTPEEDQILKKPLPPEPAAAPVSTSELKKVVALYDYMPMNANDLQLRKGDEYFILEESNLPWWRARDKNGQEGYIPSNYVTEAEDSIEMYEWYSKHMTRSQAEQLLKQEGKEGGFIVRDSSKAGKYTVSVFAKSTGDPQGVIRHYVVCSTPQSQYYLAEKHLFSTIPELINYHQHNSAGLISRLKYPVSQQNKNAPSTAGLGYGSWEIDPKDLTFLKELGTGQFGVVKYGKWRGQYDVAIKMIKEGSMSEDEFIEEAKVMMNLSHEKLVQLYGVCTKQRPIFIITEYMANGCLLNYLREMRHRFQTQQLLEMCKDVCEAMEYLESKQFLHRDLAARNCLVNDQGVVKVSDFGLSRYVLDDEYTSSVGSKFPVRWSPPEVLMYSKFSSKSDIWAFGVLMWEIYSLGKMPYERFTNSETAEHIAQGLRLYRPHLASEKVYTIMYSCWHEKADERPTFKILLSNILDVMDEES
T1 sequence (Q06187 whole entry): as above

EC50 (BTK) | IC50 [1] | MS % modification [2] | Compound | inhibition of TNF-α, IL-1β, and other inflammatory cytokines [3]
> 200 nM | ≤ 10 nM | – | C=CC(=O)Nc1cccc(Nc2nc(Nc3ccc(OCC(=O)O)cc3)ncc2F)c1 [Compound I-2, 2-(4-((4-((3-acrylamidophenyl)amino)-5-fluoropyrimidin-2-yl)amino)phenoxy)acetic acid] | –
– | 101 to 500 nM | C (<30% modification) | COCCOc1ccc(Nc2ncc(F)c(Nc3cccc(NC(=O)C(O)CO)c3)n2)cc1 (centres unmarked) [Compound I-4, N-(3-((5-fluoro-2-((4-(2-methoxyethoxy)phenyl)amino)pyrimidin-4-yl)amino)phenyl)-2,3-dihydroxypropanamide] | –
– | 101 to 500 nM | C (<30% modification) | O=C(Nc1cccc(Nc2nc(Nc3ccc(OCCO)cc3)ncc2F)c1)C(O)CO (centres unmarked) [Compound I-5, N-(3-((5-fluoro-2-((4-(2-hydroxyethoxy)phenyl)amino)pyrimidin-4-yl)amino)phenyl)-2,3-dihydroxypropanamide] | –
– | 101 to 500 nM | C (<30% modification) | O=C(Nc1cccc(Nc2nc(Nc3ccc(O)cc3)ncc2F)c1)C(O)CO (centres unmarked) [Compound I-6, N-(3-((5-fluoro-2-((4-hydroxyphenyl)amino)pyrimidin-4-yl)amino)phenyl)-2,3-dihydroxypropanamide] | –
< 50 nM | ≤ 10 nM | – | C=CC(=O)Nc1cccc(Nc2nc(Nc3ccc(OCCOC)c(O)c3)ncc2F)c1 [Compound I-13, N-(3-((5-fluoro-2-((3-hydroxy-4-(2-methoxyethoxy)phenyl)amino)pyrimidin-4-yl)amino)phenyl)acrylamide] | –
– | ≤ 10 nM | – | C=CC(=O)Nc1cccc(Nc2nc(Nc3ccc(OCCOC)cc3O)ncc2F)c1 [Compound I-14, N-(3-((5-fluoro-2-((2-hydroxy-4-(2-methoxyethoxy)phenyl)amino)pyrimidin-4-yl)amino)phenyl)acrylamide] | –
– | 11 to 100 nM | – | C=CC(=O)Nc1ccc(O)c(Nc2nc(Nc3ccc(OCCOC)cc3)ncc2F)c1 [Compound I-15, N-(3-((5-fluoro-2-((4-(2-methoxyethoxy)phenyl)amino)pyrimidin-4-yl)amino)-4-hydroxyphenyl)acrylamide] | –
– | ≤ 10 nM | – | C=CC(=O)Nc1cc(O)cc(Nc2nc(Nc3ccc(OCCOC)cc3)ncc2F)c1 [Compound I-16, N-(3-((5-fluoro-2-((4-(2-methoxyethoxy)phenyl)amino)pyrimidin-4-yl)amino)-5-hydroxyphenyl)acrylamide] | –
– | ≤ 10 nM | – | C=CC(=O)Nc1cc(Nc2nc(Nc3ccc(OCCOC)cc3)ncc2F)ccc1O [Compound I-17, N-(5-((5-fluoro-2-((4-(2-methoxyethoxy)phenyl)amino)pyrimidin-4-yl)amino)-2-hydroxyphenyl)acrylamide] | –
< 50 nM | ≤ 10 nM | – | C=CC(=O)Nc1cccc(Nc2nc(Nc3ccc(OCCOC)cc3)ncc2F)c1O [Compound I-18, N-(3-((5-fluoro-2-((4-(2-methoxyethoxy)phenyl)amino)pyrimidin-4-yl)amino)-2-hydroxyphenyl)acrylamide] | –
< 10 nM | ≤ 10 nM | A (>70% modification) | COCCOc1ccc(Nc2ncc(F)c(Nc3cccc(NC(=O)C4CO4)c3)n2)cc1 (centres unmarked) [Compound I-19, N-(3-((5-fluoro-2-((4-(2-methoxyethoxy)phenyl)amino)pyrimidin-4-yl)amino)phenyl)oxirane-2-carboxamide] | –
< 50 nM | ≤ 10 nM | – | O=C(Nc1cccc(Nc2nc(Nc3ccc(OCCO)cc3)ncc2F)c1)C1CO1 (centres unmarked) [Compound I-22, N-(3-((5-fluoro-2-((4-(2-hydroxyethoxy)phenyl)amino)pyrimidin-4-yl)amino)phenyl)oxirane-2-carboxamide] | –
< 100 nM | ≤ 10 nM | – | C=CC(=O)N(C)c1cccc(Nc2nc(Nc3ccc(OCCO)cc3)ncc2F)c1 [Compound I-23, N-(3-((5-fluoro-2-((4-(2-hydroxyethoxy)phenyl)amino)pyrimidin-4-yl)amino)phenyl)-N-methylacrylamide] | –
< 10 nM | ≤ 10 nM | – | C=CC(=O)Nc1cccc(N(C)c2nc(Nc3ccc(OCCO)cc3)ncc2F)c1 [Compound I-24] | –
– | 101 to 500 nM | – | C=CC(=O)Nc1cccc(Nc2nc(N(C)c3ccc(OCCO)cc3)ncc2F)c1 [Compound I-25, N-(3-((5-fluoro-2-((4-(2-hydroxyethoxy)phenyl)(methyl)amino)pyrimidin-4-yl)amino)phenyl)acrylamide] | –
– | > 501 nM | – | COCCOc1ccc(Nc2ncc(F)c(Nc3cccc(NC(=O)CCO)c3)n2)cc1 [Compound I-26, N-(3-((5-fluoro-2-((4-(2-methoxyethoxy)phenyl)amino)pyrimidin-4-yl)amino)phenyl)-3-hydroxypropanamide] | –
– | 101 to 500 nM | – | COCCOc1ccc(Nc2ncc(F)c(Nc3cccc(N4OCCC4=O)c3)n2)cc1 [Compound I-27] | –
– | – | – | Cc1nc2cccc(N)c2c(=O)n1C1CCC(=O)NC1=O (centres unmarked) [compound of formula D, 3-(5-amino-2-methyl-4-oxo-4H-quinazolin-3-yl)-piperidine-2,6-dione] | markedly inhibits
